Results on 1 compound are retold here after US10787430B2, “Hemoglobin modifier compounds and uses thereof” (FronThera U.S. Pharmaceuticals LLC, priority 2016, dated 2020).

One assay deals with T1, CYP2C19 (Homo sapiens, UniProt P33261).
T1 construct: from tissue; host or cells: human liver microsomes
Briefly: CYP inhibition evaluation in human liver microsomes. The assay is classed as in vitro ADME. An excerpt: (§1) Example A5: CYP Inhibition Evaluation in Human Liver Microsomes

The target in the next assay is T2, CYP2D6 (Homo sapiens, UniProt P10635).
T2 construct: from tissue; host or cells: human liver microsomes
Described as above. It is filed as in vitro ADME.
Source text: as §1

The next assay has as its target T3, CYP3A4-M (Homo sapiens, UniProt P08684).
T3 construct: from tissue; host or cells: human liver microsomes
The assay is described as above. It is filed as in vitro ADME.
Source text: as §1

For a further assay, the target named is T4, CYP2C8 (Homo sapiens, UniProt P10632).
T4 construct: from tissue; host or cells: human liver microsomes
T4 sequence (P10632 1-490): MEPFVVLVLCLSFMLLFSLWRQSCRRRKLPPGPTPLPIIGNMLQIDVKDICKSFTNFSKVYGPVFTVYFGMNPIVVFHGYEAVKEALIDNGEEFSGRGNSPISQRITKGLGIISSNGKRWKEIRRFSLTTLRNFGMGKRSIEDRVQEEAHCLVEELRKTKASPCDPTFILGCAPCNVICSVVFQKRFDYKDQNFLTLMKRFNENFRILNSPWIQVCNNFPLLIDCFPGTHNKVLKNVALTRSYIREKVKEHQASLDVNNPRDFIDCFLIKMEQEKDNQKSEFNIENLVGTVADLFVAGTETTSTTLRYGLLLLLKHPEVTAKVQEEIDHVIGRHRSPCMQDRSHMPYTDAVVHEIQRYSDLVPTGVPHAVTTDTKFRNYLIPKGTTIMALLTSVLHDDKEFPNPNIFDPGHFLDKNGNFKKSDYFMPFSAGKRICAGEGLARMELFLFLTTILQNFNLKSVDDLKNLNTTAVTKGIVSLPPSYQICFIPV
The description is as above. The assay is classed as in vitro ADME.
Source text: as §1

For another assay, the target named is T5, CYP2C9 (Homo sapiens, UniProt P11712).
T5 construct: from tissue; host or cells: human liver microsomes
The assay is described as above. It is filed as in vitro ADME.
Source text: as §1

The next assay addresses T6, CYP1A2 (Homo sapiens, UniProt P05177).
T6 construct: from tissue; host or cells: human liver microsomes
T6 sequence (P05177 1-516): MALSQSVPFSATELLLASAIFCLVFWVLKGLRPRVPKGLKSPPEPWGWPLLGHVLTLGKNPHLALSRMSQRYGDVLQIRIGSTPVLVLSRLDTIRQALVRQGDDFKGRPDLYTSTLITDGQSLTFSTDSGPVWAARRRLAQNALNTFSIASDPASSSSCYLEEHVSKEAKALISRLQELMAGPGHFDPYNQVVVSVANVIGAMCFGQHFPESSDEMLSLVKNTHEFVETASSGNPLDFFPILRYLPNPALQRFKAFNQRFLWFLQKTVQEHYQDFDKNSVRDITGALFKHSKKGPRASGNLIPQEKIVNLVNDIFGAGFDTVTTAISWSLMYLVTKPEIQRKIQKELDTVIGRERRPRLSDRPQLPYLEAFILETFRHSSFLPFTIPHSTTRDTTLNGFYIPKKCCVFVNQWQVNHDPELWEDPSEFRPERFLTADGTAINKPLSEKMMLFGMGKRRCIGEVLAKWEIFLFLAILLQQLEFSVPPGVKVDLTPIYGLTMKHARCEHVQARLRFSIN
The description is as above. The assay is classed as in vitro ADME.
Source text: as §1

Assay [1] relates to sickled HbSS whole blood (RBC sickling). Briefly: Anti-sickling assay in HbSS sickled blood under hypoxic induction. The assay is classed as cell-based, human. The note with it: HbSS whole blood 26% Hct, 20 mins hypoxic induction; 0.2 mM compounds (FIG. 2). On the procedure: Materials: • Blood collected after informed consent from sickle cell individuals. • HBS buffer: 10 mM HEPES, 145 mM NaCl, pH 7.4 • Hemox buffer: Buffer provided for the hemox analyzer • Control Compound stock solution in DMSO (50 mM) stored at RT • Control Compound work solution (CWS): 10 μl of DMSO was added by Hamilton to 90 μl of HBS buffer (20 mM Hepes, 145 mM NaCl, pH 7.4) to create a working solution with a final concentration of 5 mM drug and 10% DMSO). • Compound stock solution in DMSO (50 mM) stored at RT • Compound work solution (WS): 10 μl of DMSO was added by Hamilton to 90 μl of HBS buffer (20 mM Hepes, 145 mM NaCl, pH 7.4) to create a working solution with a final concentration of 5 mM drug and 10% DMSO). • DMSO buffer: 10% DMSO (DB), same as WS but without drug. This will be used to maintain DMSO the same for different drug incubations. Test Protocol:
Collect blood from Clinic: Blood were collected after informed consent according to an approved IRB protocol. • Run Advia 120 analysis on SCD blood, to determine Hct. • Dilute blood to 20% Hct with HBS to total volume of 3 ml. • This cell suspension (CS) will be used for all experiments.
Incubation • 1. 200 μl CS • 2. 200 μl CS+20 μl CWS (5 mM diluted 10 times=0.5 mM control final)−(1% DMSO) • 3. 200 μl CS+20 μl WS (5 mM diluted 10 times=0.5 mM control final)−(1% DMSO) • 4. 200 μl CS+8 μl WS (0.2 mM drug final)+DB−(1% DMSO) • Incubate 30 minutes at 37° C.
50 μl into 1 ml HBS+2% BSA buffer. Eight time points (0-20 minutes) at 2% oxygen, 10,000 events each)
The sickling runs provide sets samples that need to be run on the AMNIS image flow and are subsequently analyzed with pixel analysis software.
Drug was provided at 50 mM concentration in DMSO, and stored at room temperature until use. 10 μl of DMSO was added by Hamilton to 90 μl of HBS buffer (20 mM Hepes, 145 mM NaCl, pH 7.4) to create a working solution with a final concentration of 5 mM drug and 10% DMSO). Blood was collected from a sickle cell patient in EDTA anticoagulant. To 200 μl of whole blood, a 20 or 8 μl of working solution was added resulting in a final drug concentration of 0.5 mM or 0.2 mM respectively. The DMSO concentration in both was corrected to 1%. The final hematocrit was measured by ADVIA analysis to be 26%. […] The delta hemox (%) comparing Example 29e with GBT440 is shown in FIG. 1A (0.2 mM) and FIG. 1B (0.5 mM).
Anti-sickling is shown in FIG. 2 with M: maximum percentage of sickled cells during 20 mins of hypoxic induction, T: time needed to reach 50% of M, and Z: baseline percentage of sickled cells prior to hypoxic induction.

The structures appear in SMILES notation. pIC50: −log10 of the molar value. Where only a bound is given, the exact number is not on record here.

As usually defined, the pIC50 is the negative decadic logarithm of the IC50, by convention in mol/L.

T1 sequence (P33261 whole entry): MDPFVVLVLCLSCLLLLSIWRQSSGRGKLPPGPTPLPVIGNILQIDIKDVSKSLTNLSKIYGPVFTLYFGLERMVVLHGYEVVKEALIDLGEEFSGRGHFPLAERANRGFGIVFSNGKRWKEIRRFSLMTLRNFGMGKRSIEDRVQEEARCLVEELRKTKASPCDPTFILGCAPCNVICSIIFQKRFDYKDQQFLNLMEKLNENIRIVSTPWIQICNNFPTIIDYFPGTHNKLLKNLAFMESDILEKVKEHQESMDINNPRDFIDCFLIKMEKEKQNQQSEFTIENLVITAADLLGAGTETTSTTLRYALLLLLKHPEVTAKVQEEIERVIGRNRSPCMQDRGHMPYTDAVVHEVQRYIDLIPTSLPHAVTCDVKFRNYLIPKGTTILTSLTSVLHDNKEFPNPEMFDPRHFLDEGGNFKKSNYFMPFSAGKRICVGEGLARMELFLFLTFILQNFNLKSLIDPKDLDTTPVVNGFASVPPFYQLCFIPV
T5 sequence (P11712 whole entry): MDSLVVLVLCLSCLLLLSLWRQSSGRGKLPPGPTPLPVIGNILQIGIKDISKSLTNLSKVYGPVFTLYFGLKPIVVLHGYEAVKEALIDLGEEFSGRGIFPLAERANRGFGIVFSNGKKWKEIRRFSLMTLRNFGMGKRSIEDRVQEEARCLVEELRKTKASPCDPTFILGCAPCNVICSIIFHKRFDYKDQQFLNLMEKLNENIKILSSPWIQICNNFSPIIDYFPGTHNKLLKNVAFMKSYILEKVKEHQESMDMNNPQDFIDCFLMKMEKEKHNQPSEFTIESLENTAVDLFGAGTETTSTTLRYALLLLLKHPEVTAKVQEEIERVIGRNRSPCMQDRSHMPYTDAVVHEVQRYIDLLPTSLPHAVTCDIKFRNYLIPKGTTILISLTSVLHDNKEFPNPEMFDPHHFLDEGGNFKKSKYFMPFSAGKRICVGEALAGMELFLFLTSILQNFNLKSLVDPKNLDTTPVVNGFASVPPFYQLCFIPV
T2 sequence (P10635 whole entry): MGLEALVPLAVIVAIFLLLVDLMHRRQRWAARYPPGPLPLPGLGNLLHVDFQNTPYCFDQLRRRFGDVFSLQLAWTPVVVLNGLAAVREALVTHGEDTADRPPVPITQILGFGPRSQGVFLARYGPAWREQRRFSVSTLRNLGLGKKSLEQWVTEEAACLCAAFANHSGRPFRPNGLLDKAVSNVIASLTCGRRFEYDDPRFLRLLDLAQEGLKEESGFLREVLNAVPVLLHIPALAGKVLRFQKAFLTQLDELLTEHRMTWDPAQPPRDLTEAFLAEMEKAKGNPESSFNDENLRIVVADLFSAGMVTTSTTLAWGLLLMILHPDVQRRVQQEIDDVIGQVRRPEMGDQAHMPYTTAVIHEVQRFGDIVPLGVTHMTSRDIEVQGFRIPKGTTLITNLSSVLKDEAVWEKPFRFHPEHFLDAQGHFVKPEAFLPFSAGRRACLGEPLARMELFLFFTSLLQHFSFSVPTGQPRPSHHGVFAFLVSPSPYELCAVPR
T3 sequence (P08684 whole entry): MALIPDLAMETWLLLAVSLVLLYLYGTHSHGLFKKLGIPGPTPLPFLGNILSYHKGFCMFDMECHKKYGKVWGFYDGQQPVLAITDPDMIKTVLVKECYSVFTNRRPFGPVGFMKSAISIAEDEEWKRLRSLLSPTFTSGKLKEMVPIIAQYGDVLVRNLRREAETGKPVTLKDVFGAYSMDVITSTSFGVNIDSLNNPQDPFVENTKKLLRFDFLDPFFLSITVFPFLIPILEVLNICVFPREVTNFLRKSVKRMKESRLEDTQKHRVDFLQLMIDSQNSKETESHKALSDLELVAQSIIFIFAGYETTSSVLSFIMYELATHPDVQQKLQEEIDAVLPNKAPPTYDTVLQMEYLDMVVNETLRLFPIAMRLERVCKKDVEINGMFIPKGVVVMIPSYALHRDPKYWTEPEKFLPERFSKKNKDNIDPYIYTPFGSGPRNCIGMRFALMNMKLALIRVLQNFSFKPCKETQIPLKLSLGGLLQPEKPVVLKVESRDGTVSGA

Regarding `[2H]C([2H])(Oc1cccc(O)c1C=O)c1cncnc1-c1ccnn1C(C)C` [Example 38, 2-hydroxy-6-((4-(1-isopropyl-1H-pyrazol-5-yl)pyrimidin-5-yl)methoxy-d2)benzaldehyde], the pIC50 on CYP2C19 was 5.06; against CYP2D6 it was less than 4.52; against CYP3A4-M, less than 4.52; at CYP2C8 it was 4.60; against CYP2C9, 4.97; against CYP1A2, less than 4.52. The “Reduction in % sickled cells compared to untreated” value in assay [1] is given as −30.6%.
